Results published in US20140242609A1, “Diagnosis and treatment of kidney stones, methods and compositions therefor” (Washington University, priority 2013, published 2014).

What was measured:
[1] = 24 hr urinalysis in metabolic cages, plasma and urine electrolytes; assay type: in vivo, mouse
Procedure: Age (9-10 weeks old) and sex (male) matched wild-type and CLDN14 KO mice were housed individually in metabolic cages (Harvard Apparatus) with free access to water and food for 24 hr. Urine was collected under mineral oil. The plasma and urine Ca^++ and Mg^2+ levels were determined with atomic flame absorption spectrophotometer (PerkinElmer). The plasma (P) and urine (U) electrolyte levels were determined with the Roche Cobas clinical analyzer (Roche Diagnostics). […] The fractional excretion of electrolytes was calculated using the following equation: FEion=V×Uion/(GFR×Pion), where GFR was calculated according to the clearance rate of creatinine (GFR=V×Ucreatinine/Pcreatinine).
(§1) Mice were housed individually in metabolic cages (Harvard Apparatus) with free access to water and food for 24 hr. Urine was collected under mineral oil. The plasma and urine Ca^++ and Mg^++ levels were determined with atomic flame absorption spectrophotometer (PerkinElmer). The creatinine levels were measured with an enzymatic method that was independent of plasma chromogens.

[2] = urinary Ca++ and Mg++ levels (ratios to creatinine) in spot urine collections; assay type: in vivo, mouse; details: 5 mg/kg BW−1
Procedure: as §1, with “chromogens. (Gong Y, et al., 2013) The fractional excretion of electrolytes was calculated using the following equation FEion=V×Uion/(GFR×Pion), where GFR was calculated according to the clearance rate of creatinine (GFR=V×Ucreatinine/Pcreatinine).” for “chromogens.”
In these experiments, the inventors gave wild-type C57BL/6 mice SAHA treatments at 5 mg/kg BW^−1 and traced urinary Ca^++ and Mg^++ levels (as ratios to creatinine) from 4 hr to 12 hr in spot urine collections. Consistent with the downregulation of CLDN14 gene expression at 4 hrs, the urinary excretion of Ca^++ and Mg^++ was reduced by 47% and 40% respectively (p<0.01, n=5 versus vehicle, FIG. 19A-B).

[3] = circulating hormonal levels in SAHA treated mice (ELISA); assay type: in vivo, mouse; details: SAHA treatments versus vehicle
Procedure: FIG. 24 illustrates circulating hormonal levels in SAHA versus vehicle treated mouse kidneys. Serum PTH (A), 1,25-(OH)2-vitD3 (B) and FGF23 (C) levels were measured with ELISA and shown as mean±SEM, n=5.

[4] = test system: CLDN16, CLDN19, TRPV5, TRPM6, NKCC2, ROMK, TSC, Klotho and VDR; assay: gene expression of renal ion transporters in SAHA treated mouse kidneys (real-time PCR); assay type: in vivo; details: SAHA versus vehicle
Text: FIG. 25 illustrates gene expression analyses of renal ion transporters in SAHA versus vehicle treated mouse kidneys by real-time PCR. Values are shown as fold ratios relative to the vehicle level (as mean±SEM; n=5).
Total RNA including microRNA was extracted using Trizol (Invitrogen). Cellular mRNA was reverse transcribed using the Superscript-III kit (Invitrogen), followed by real-time PCR amplification using SYBR Green PCR Master Mix (Bio-Rad) and Eppendorf Realplex2S system. The design of claudin-14 primers was described before by Gong et al., 2012. The design of pri-miRNA primers and ChIP primers was according to Gong et al., 2013. Results were expressed as 2^−ΔCt values with ΔCT=Ctgene−Ctβ-actin.

[5] = cited from earlier work
[6] = WT pre-treated with furosemide 40 mg/kg BW−1 per day, Veh + Furo = furosemide alone

Q: Which results are given for O=C(CCCCCCC(=O)Nc1ccccc1)NO [SAHA, Suberanilohydroxamic acid]?
A: ECa ([1]; CLDN14 KO, same SAHA regimen): 1.20 ± 0.24 ug/24 hr · g; EMg ([1]; CLDN14 KO, same SAHA regimen): 6.50 ± 0.55 ug/24 hr · g; FECa ([1]; CLDN14 KO, same SAHA regimen): 0.45 ± 0.07%; FEMg ([1]; CLDN14 KO, same SAHA regimen): 9.90 ± 0.83%; PCa ([1]; CLDN14 KO, same SAHA regimen): 11.13 ± 0.34 mg/dL; PMg ([1]; CLDN14 KO, same SAHA regimen): 2.76 ± 0.05 mg/dL; ECa [1, 6]: 3.37 ± 0.75 ug/24 hr · g; EMg [1, 6]: 8.34 ± 2.15 ug/24 hr · g; FECa [1, 6]: 1.97 ± 0.38%; FEMg [1, 6]: 22.50 ± 6.40%; PCa [1, 6]: 9.95 ± 0.41 mg/dL; PMg [1, 6]: 2.20 ± 0.06 mg/dL; ECa ([1]; WT, SAHA 10 mg/kg BW−1 per day): 0.72 ± 0.26^□ ug/24 hr · g; EMg ([1]; WT, SAHA 10 mg/kg BW−1 per day): 3.16 ± 0.80^□□ ug/24 hr · g; FECa ([1]; WT, SAHA 10 mg/kg BW−1 per day): 0.27 ± 0.08^□□ %; FEMg ([1]; WT, SAHA 10 mg/kg BW−1 per day): 6.06 ± 1.71^□□ %; PCa ([1]; WT, SAHA 10 mg/kg BW−1 per day): 11.38 ± 0.44^□ mg/dL; PMg ([1]; WT, SAHA 10 mg/kg BW−1 per day): 2.71 ± 0.12^□ mg/dL; effect of chronic treatment on calcemia ([1]; chronic SAHA treatment): mild hypercalcemia; urinary excretion of Ca++, reduction ([2]; 4 hrs, versus vehicle): 47%; urinary excretion of Mg++, reduction ([2]; 4 hrs, versus vehicle): 40%; effects on urinary Ca++ and Mg++ levels ([2]; after 12 hrs): completely lost; urinary Ca++ excretion ([2]; by 8 hrs): hypocalciuria was pronounced; urinary magnesium excretion ([2]; by 8 hrs): recovered to the vehicle level; circulating 1,25-(OH)2-vitD3 levels [3]: None of these hormones changed; circulating FGF23 levels [3]: None of these hormones changed; circulating PTH levels [3]: None of these hormones changed; expression levels of other major Ca++/Mg++ transporters from the kidney [4]: nor did the inventors find any significant change

Q: Which “time to maximal serum concentration after oral administration” value ([5]; oral) does the source give for C[C@@H](NCCCc1cccc(C(F)(F)F)c1)c1cccc2ccccc12 [cinacalcet] here?
A: 1.5 to 3 h

Q: And the “half-life of absorbed cinacalcet” value ([5]; serum)?
A: 30 to 40 h
